From patent publication US20240238424A1, “HETEROBIFUNCTIONAL COMPOUNDS AND METHODS OF TREATING DISEASE” (Halda Therapeutics OpCo, Inc., priority 2021, published 2024)

Target: T1, GSPT1 (Homo sapiens, UniProt P15170+Q96SW2)
T1 construct: host or cells: HEK293 LgBiT cell line
Experiment: GSPT1 HiBit degradation assay
Format: cell-based
Details: HEK293 LgBiT cells expressing GSPT1_HiBiT, luminescence after 6 hours
Source text: Promega developed a HEK293 cell line that constitutively expresses LgBiT protein and GSPT1_HiBiT fusion protein. When both proteins are present, the HiBiT portion of the fusion protein combines with LgBiT protein to form a functional luciferase enzyme. Endurazine, a cell permeable small molecule, is converted by cellular esterases into furimazine, which the luciferase enzyme uses as a substrate to generate luminescence. When GSPT1 is degraded, the HiBit is also degraded. This prevents formation of fully functional luciferase, leading to a loss in luminescence. GSPT1 degradation therefore correlates with a decrease in luminescence and can be measured continuously over time. The concentration of compound at which 50% GSPT1 degradation occurs (DC50) was calculated using this system.
• HEK293 LgBiT Cell line (Promega Custom) • Endurazine Substrate (Promega Cat. #N2570) • DMEM (Gibco Cat. #11995) • Penicillin/Streptomycin (Gibco Cat. #15140-122) • Heat Inactivated Fetal Bovine Serum (Gibco Cat. #A38400-01) • Hygromycin B (Gibco Cat. #10-687-010) • 384 Well TC Treated White Microplate (Perkin Elmer Cat. #6007680)
HEK293 LgBiT cells were cultured in DMEM Media supplemented with 10% FBS, 5% Pen/Strep, 200 μg/ml hygromycin and stored in an incubator set at 37° C. and 5% CO2. 18-24 hours prior to compound treatment, HEK293 LgBiT cells were seeded at 1000 cells/well in a 384-well microplate in 25 μl complete media. The plate was spun at 300 g for 30 seconds and stored in the incubator overnight. The next day, compounds were titrated in DMSO and added to media supplemented with endurazine substrate. A 25 ul aliquot of 2× compound/endurazine in media were then added to the 384-well microplate with seeded cells. (Endurazine was used at a final concentration of 0.5×). The plate was spun at 300 g for 30 seconds and stored in the incubator. After 6 hours the plate was read on a Perkin Elmer MultiMode Plate Reader Envision 2105 to measure luminescence signal.

T1 sequence (P15170 whole entry): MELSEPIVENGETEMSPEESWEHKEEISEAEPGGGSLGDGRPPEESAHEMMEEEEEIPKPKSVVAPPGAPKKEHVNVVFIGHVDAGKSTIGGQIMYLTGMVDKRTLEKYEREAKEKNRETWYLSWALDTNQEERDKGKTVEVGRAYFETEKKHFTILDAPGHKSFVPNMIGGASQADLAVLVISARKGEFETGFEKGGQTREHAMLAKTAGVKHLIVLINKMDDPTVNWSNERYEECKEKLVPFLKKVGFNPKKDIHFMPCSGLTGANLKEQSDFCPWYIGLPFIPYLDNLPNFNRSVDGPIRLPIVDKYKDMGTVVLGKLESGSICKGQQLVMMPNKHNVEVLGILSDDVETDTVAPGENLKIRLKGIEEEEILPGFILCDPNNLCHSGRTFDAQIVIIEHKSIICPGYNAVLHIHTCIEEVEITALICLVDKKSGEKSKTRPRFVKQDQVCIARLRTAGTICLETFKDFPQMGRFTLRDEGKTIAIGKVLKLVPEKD
T1 sequence (Q96SW2 whole entry): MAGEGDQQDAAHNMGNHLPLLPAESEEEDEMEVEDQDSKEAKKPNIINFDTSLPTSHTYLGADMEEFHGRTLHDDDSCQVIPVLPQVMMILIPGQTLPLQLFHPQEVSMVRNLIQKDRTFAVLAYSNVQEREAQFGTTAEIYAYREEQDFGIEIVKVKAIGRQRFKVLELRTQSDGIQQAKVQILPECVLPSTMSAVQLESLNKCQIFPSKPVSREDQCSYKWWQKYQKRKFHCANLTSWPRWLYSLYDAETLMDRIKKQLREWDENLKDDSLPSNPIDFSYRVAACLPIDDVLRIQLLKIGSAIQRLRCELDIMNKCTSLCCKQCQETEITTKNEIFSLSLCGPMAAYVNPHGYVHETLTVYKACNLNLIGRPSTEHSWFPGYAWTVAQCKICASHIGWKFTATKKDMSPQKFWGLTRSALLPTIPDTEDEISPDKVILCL
T1 sequence (Q16531 whole entry partner): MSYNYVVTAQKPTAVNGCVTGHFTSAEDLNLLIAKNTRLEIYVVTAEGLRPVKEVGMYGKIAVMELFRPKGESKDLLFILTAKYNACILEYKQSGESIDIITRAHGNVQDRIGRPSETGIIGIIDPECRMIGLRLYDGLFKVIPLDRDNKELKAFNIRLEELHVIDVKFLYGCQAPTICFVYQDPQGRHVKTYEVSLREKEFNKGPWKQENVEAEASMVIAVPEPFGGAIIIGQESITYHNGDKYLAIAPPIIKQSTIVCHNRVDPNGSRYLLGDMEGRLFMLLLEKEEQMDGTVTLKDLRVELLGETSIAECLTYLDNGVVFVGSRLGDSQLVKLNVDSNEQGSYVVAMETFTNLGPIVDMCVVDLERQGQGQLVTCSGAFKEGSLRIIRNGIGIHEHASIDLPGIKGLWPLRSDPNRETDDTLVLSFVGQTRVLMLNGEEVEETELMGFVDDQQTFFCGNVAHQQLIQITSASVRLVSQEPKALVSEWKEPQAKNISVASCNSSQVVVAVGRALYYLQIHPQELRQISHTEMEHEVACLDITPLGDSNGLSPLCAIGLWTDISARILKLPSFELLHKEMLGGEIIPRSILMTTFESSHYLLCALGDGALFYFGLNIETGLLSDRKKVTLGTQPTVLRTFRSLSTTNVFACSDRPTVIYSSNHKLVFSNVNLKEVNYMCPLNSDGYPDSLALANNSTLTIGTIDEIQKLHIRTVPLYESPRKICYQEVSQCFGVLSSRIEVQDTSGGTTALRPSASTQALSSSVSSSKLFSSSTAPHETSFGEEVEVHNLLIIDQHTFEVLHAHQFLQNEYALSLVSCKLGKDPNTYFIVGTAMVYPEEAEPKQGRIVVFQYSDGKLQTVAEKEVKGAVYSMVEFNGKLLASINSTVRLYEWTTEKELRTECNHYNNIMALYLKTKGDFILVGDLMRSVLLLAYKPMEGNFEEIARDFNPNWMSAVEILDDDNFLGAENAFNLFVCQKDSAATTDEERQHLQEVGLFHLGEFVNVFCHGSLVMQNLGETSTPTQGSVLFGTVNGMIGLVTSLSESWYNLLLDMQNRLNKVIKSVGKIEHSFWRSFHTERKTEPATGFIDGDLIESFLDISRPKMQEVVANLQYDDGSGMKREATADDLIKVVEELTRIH

SMILES	DC50 (Table 3A)	DC50 (Table 3)
C=CC(=O)Nc1cc(Nc2nccc(-c3cn(C)c4ccccc34)n2)c(OC)cc1N(C)CCN(C)CCOCCOCCOCCOCCOCCOCCOCCOCCOc1cc(Cl)cc(NC(=O)NCc2ccc3c(c2)CN(C2CCC(=O)NC2=O)C3=O)c1 (centres unmarked) [Compound I-57]		> 10 µM
C=C(F)C(=O)N1CCN(c2nc(OC[C@@H]3C[C@@H](OCCOCCOCCOCCOCCCCCCCCc4cccc(NC(=O)NCc5ccc6c(c5)CN(C5CCC(=O)NC5=O)C6=O)c4)CN3C)nc3c2CCN(c2cccc4cccc(Cl)c24)C3)C[C@@H]1CC#N (some centres unmarked) [Compound I-99]	0.25 to 5 µM	
Cc1ccc(NC(=O)NC(CCCCCOCCOCCOCCN(C)C/C=C/C(=O)N2CCN(c3nc(OC[C@@H]4CCCN4C)nc4c3CCN(c3cccc5cccc(Cl)c35)C4)C[C@@H]2CC#N)c2ccc3c(c2)CN(C2CCC(=O)NC2=O)C3=O)cc1Cl (some centres unmarked) [Compound I-115]	5 to 10 µM	
C=C(F)C(=O)N1CCN(c2nc(OC[C@@H]3CCCN3CCCOCCOCCOCCOCCOCCCCCc3cc(Cl)cc(NC(=O)NCc4ccc5c(c4)CN(C4CCC(=O)NC4=O)C5=O)c3)nc3c2CCN(c2cccc4cccc(Cl)c24)C3)C[C@@H]1CC#N (some centres unmarked) [Compound I-133]	0.25 to 5 µM	
C=CC(=O)Nc1cc(Nc2nccc(-c3cn(C)c4ccccc34)n2)c(OC)cc1N(C)CCN(C)CCOCCOCCOCCOCCOCCOCCOCCOCCOCCOCCc1cc(Cl)cc(NC(=O)NCc2ccc3c(c2)CN(C2CCC(=O)NC2=O)C3=O)c1 (centres unmarked) [Compound I-36]		5 to 10 µM
CCC(=O)N1CCN(c2nc(OC[C@@H]3CCCN3CCOCCOCCOCCOCCOCCOCCOCCOCCOCCOCCOCCOCCOCCOCCCCCCCCc3cc(Cl)cc(NC(=O)NCc4ccc5c(c4)CN(C4CCC(=O)NC4=O)C5=O)c3)nc3c2CCN(c2cccc4cccc(Cl)c24)C3)C[C@@H]1CC#N (some centres unmarked) [Compound I-106]	0.25 to 5 µM	
C=C(F)C(=O)N1CCN(c2nc(OC[C@@H]3CCCN3CCCOCCOCCOCCOCCCCCCCCc3cc(Cl)cc(NC(=O)NCc4ccc5c(c4)CN(C4CCC(=O)NC4=O)C5=O)c3)nc3c2CCN(c2cccc4cccc(Cl)c24)C3)C[C@@H]1CC#N (some centres unmarked) [Compound I-70]		< 0.25 µM
Cc1c(NC(=O)c2ccc(C3CC3)cc2F)cc(F)cc1-c1ncnc(N)c1OCCN(C)C(=O)/C=C/CN(C)CCOCCOCCOCCCCCc1cc(Cl)cc(NC(=O)NCc2ccc3c(c2)CN(C2CCC(=O)NC2=O)C3=O)c1 (centres unmarked) [Compound I-112]	0.25 to 5 µM	
C=CC(=O)Nc1cc(Nc2nccc(-c3cn(C)c4ccccc34)n2)c(OC)cc1N(C)CCN(C)CCOCCOCCOCCOCCOCCOCCOCCOCCOCCOCCCCCCCCc1cc(Cl)cc(NC(=O)NCc2ccc3c(c2)CN(C2CCC(=O)NC2=O)C3=O)c1 (centres unmarked) [Compound I-63]		< 0.25 µM
CN(CCOCCOCCOCCOCCOCCOCCOCCOCCOCCCCCc1cc(Cl)cc(NC(=O)NCc2ccc3c(c2)CN(C2CCC(=O)NC2=O)C3=O)c1)C(=O)CO[C@H]1CC[C@H]2[C@@H]3CC[C@H]4CC(=O)CC[C@]4(C)[C@H]3CC[C@]12C (some centres unmarked) [Compound I-135]	0.25 to 5 µM	
C=CC(=O)Nc1cc(Nc2nccc(-c3cn(C)c4ccccc34)n2)c(OC)cc1N(C)CCN(C)CCOCCOCCOCCOCCOCCOCCc1cc(Cl)cc(NC(=O)NCc2ccc3c(c2)CN(C2CCC(=O)NC2=O)C3=O)c1 (centres unmarked) [Compound I-34]		5 to 10 µM
CC1(C)[C@H](NC(=O)c2ccc(OCCOCCOCCOCCOCCOCCOCCOCCOCCc3cc(Cl)cc(NC(=O)NCc4ccc5c(c4)CN(C4CCC(=O)NC4=O)C5=O)c3)cc2)C(C)(C)[C@H]1Oc1ccc(C#N)c(Cl)c1 (some centres unmarked) [Compound I-28]		0.25 to 5 µM

Continued, values first:

DC50 (Table 3A)	DC50 (Table 3)	SMILES
0.25 to 5 µM		CN(C/C=C/C(=O)N1CCN(c2nc(OC[C@@H]3CCCN3C)nc3c2CCN(c2cccc4cccc(Cl)c24)C3)C[C@@H]1CC#N)CCOCCOCCOCCOCCOCCCCCc1cc(Cl)cc(NC(=O)NCc2ccc3c(c2)CN(C2CCC(=O)NC2=O)C3=O)c1 (some centres unmarked) [Compound I-108]
5 to 10 µM		CN(C/C=C/C(=O)N1CCN(c2nc(OC[C@@H]3CCCN3C)nc3c2CCN(c2cccc4cccc(Cl)c24)C3)C[C@@H]1CC#N)CCOCCOCCOCCOCCOCCOCCOCCOCCOCCCCCc1cc(Cl)cc(NC(=O)NCc2ccc3c(c2)CN(C2CCC(=O)N(C)C2=O)C3=O)c1 (some centres unmarked) [Compound I-164]
	> 10 µM	CCN(CCOCCOCCOCCOCCOCCOCCCCCCCCCCCCCCc1cc(Cl)cc(NC(=O)NCc2ccc3c(c2)CN(C2CCC(=O)NC2=O)C3=O)c1)CCOc1ccc(C(=O)c2c(-c3ccc(O)cc3)sc3cc(O)ccc23)cc1 (centres unmarked) [Compound I-56]
0.25 to 5 µM		CN(C/C=C/C(=O)N1CCC[C@@H](n2nc(-c3ccc(Oc4ccccc4)cc3)c3c(N)ncnc32)C1)CCOCCOCCOCCOCCOCCOCCOCCCCCc1cc(Cl)cc(NC(=O)NCc2ccc3c(c2)CN(C2CCC(=O)NC2=O)C3=O)c1 (some centres unmarked) [Compound I-111]
< 0.25 µM		Cc1c(NC(=O)c2ccc(C3CC3)cc2F)cc(F)cc1-c1ncnc(N)c1OCCN(C)C(=O)/C=C/CN(C)CCOCCOCCOCCOCCCCCCCCc1cc(Cl)cc(NC(=O)NCc2ccc3c(c2)CN(C2CCC(=O)NC2=O)C3=O)c1 (centres unmarked) [Compound I-96]
	> 10 µM	C=CC(=O)Nc1cc(Nc2nccc(-c3cn(C)c4ccccc34)n2)c(OC)cc1N(C)CCN(C)CCOCCOCCOCCOCCOCCOCCOCCOCCc1cc(Cl)cc(NC(=O)NCc2ccc3c(c2)CN(C2CCC(=O)NC2=O)C3=O)c1 (centres unmarked) [Compound I-35]
0.25 to 5 µM		Cc1c(NC(=O)c2ccc(C3CC3)cc2F)cc(F)cc1-c1ncnc(N)c1OCCN(C)C(=O)/C=C/CN(C)CCOCCOCCOCCOCCOCCOCCOCCOCCOCCCCCc1cc(Cl)cc(NC(=O)NCc2ccc3c(c2)CN(C2CCC(=O)NC2=O)C3=O)c1 (centres unmarked) [Compound I-129]
	0.25 to 5 µM	Cc1c(CC(=O)N(C)C)ccc(NC(=O)c2nn([C@H]3CCCN(C(=O)/C=C/CN(C)CCOCCOCCOCCOCCOCCOCCOCCOCCOCCOCCCCCCCCc4cc(Cl)cc(NC(=O)NCc5ccc6c(c5)CN(C5CCC(=O)NC5=O)C6=O)c4)C3)c3ncnc(N)c23)c1C (some centres unmarked) [Compound I-66]
0.25 to 5 µM		CN(C/C=C/C(=O)N1CCN(c2nc(OC[C@@H]3CCCN3C)nc3c2CCN(c2cccc4cccc(Cl)c24)C3)C[C@@H]1CC#N)CCOCCOCCOCCOCCOCCOCCOCCOCCOCCOCCCCCCCCc1cc(Cl)cc(NC(=O)NCc2ccc3c(c2)CN(C2CCC(=O)NC2=O)C3=O)c1 (some centres unmarked) [Compound I-87]
0.25 to 5 µM		C=CC(=O)N1CCN(c2nc(=O)n(-c3c(C)cc(OCCOCCOCCOCCOCCOCCOCCOCCCCCc4cc(Cl)cc(NC(=O)NCc5ccc6c(c5)CN(C5CCC(=O)NC5=O)C6=O)c4)nc3C(C)C)c3nc(-c4c(O)cccc4F)c(F)cc23)[C@@H](C)C1 (some centres unmarked) [Compound I-153]
0.25 to 5 µM		Cc1c(NC(=O)c2ccc(C3CC3)cc2F)cc(F)cc1-c1ncnc(N)c1OCCN(C)C(=O)/C=C/CN(C)CCOCCOCCOCCOCCOCCOCCOCCCCCc1cc(Cl)cc(NC(=O)NCc2ccc3c(c2)CN(C2CCC(=O)NC2=O)C3=O)c1 (centres unmarked) [Compound I-113]
	< 0.25 µM	Cc1c(CC(=O)N(C)C)ccc(NC(=O)c2nn(C3CCCN(C(=O)/C=C/CN(C)CCOCCOCCOCCOCCOCCOCCCCCCCCc4cc(Cl)cc(NC(=O)NCc5ccc6c(c5)CN(C5CCC(=O)NC5=O)C6=O)c4)C3)c3ncnc(N)c23)c1C (centres unmarked) [Compound I-65]
0.25 to 5 µM		CN(C/C=C/C(=O)N1CCN(c2nc(OC[C@H]3CCCN3C)nc3c2CCN(c2cccc4cccc(Cl)c24)C3)C[C@@H]1CC#N)CCOCCOCCOCCOCCOCCOCCOCCOCCCCCCCCc1cc(Cl)cc(NC(=O)NCc2ccc3c(c2)CN(C2CCC(=O)NC2=O)C3=O)c1 (some centres unmarked) [Compound I-86]
0.25 to 5 µM		Nc1ncnc2c1c(-c1ccc(Oc3ccccc3)cc1)nn2[C@@H]1CCCN(C(=O)/C=C/COCCOCCOCCOCCOCCOCCOCCOCCOCCOCCOCCCCCCCCc2cc(Cl)cc(NC(=O)NCc3ccc4c(c3)CN(C3CCC(=O)NC3=O)C4=O)c2)C1 (some centres unmarked) [Compound I-94]
